In patent publication US6060046A, “Antifouling compositions” (Unisearch Limited, priority 1994, dated 2000):

Assays:
[1] = tested on: cyprids of the cosmopolitan fouling barnacle Balanus amphitrite; assay: Inhibition of settlement of barnacle cyprid larvae, metabolites dissolved in water; type: in vivo; conditions: 24 hr, based on FIGS. 2 and 3
Experimental: Settlement assays were carried out using cyprids of the cosmopolitan fouling barnacle Balanus amphitrite. The methods used were similar to those used previously (Rittschof et al, 1994, Willemson 1994). Adult brood stock were maintained under controlled light (15 hr light: 9 hr dark) and temperature (28° C.) conditions and fed larvae of the brine shrimp Artemia salina and the diatom Skeletonema costatum. Recently spawned nauplii of B. amphitrite were collected and reared on Skeletonema costatum under the same conditions as adult stocks until reaching cyprid stage after four to five days. Cyprid larvae were subsequently filtered from the culture and maintained in filtered seawater at 5° C. for five days prior to use in settlement assays.
Assays used purified metabolites at concentrations ranging from 100 μg to 0.1 ng per millilitre. […]
Tests were conducted by adding 45-65 cyprids to petri-dishes (47 mm) containing five mls of either test solution, filtered seawater control, or DMSO control. […] The dishes were then rinsed and the percent settlement of cyprids was determined by counting settled and non settled larvae.
The effects of Delisea pulchra metabolites on the settlement of barnacle cyprid larvae, the growth of bacteria and the settlement and germination of algal spores were analysed in two ways. […]

marine bacterium SW8 = assay: Inhibition of bacterial growth, marine isolate SW8; type: cell-based; conditions: c = control
Experimental: Assays to determine the antibacterial effect of Delisea metabolites used the marine isolate SW8 (Neu et al., 1991). […] Purified metabolites 1-4 were dissolved in ethyl acetate (10 mg/ml-10 μg/ml) and were added in volumes of 20 μl to sterilised McCartney bottles containing 19 mls of filter sterilised artificial seawater (ASW) medium supplemented with a trace vitamin and mineral solution (Schneider et al., 1994). Two reference compounds for antibacterial activity, the antibiotic gentamicin (Sigma)and a saturated copper (II) oxide solution, were also used in these tests. Following addition of metabolites, antibiotics or copper, the media was inoculated with SW8. The inoculum for the assay was taken from a continuous culture fermenter operating at a cell density of 10^7 cells/ml. The final concentration of metabolites and antibiotic tested ranged from 10 μg/ml to 10 ng/ml. Control bottles with media only, and media with 20 μl EtOAc added, were inoculated with SW8 and run concurrently with each experiment.
After mixing, 200 μl from each bottle was aseptically transferred to a well in a Nunc Tissue Culture plate (96 well). Plates were incubated aerobically at 30° C. with shaking. Growth was monitored by optical density (600 nm) every hour for 12 hours after which growth was monitored every four hours for a further 18 hours.
The effects of Delisea pulchra metabolites on the settlement of barnacle cyprid larvae, the growth of bacteria and the settlement and germination of algal spores were analysed in two ways. Firstly, we used Analysis of Variance (ANOVA) followed by Tukey's multiple comparison tests to determine which compounds, at which concentrations, had statistically significant effects on the test organisms. Analyses were done using the Statview II statistical package. These procedures enable us to determine the minimum concentration of a compound necessary to have some significant effect, and to look in a detailed way at variation in the effects of different compounds.

O=S(=O)([O-])[O-].[Cu+2] [CuSO4]
EC50 + 95% conf. int. (50% settlement inhibition) [1]: 0.40(0.25-0.77) μg/ml

gentamicin
Compounds in order of increasing activity (growth inhibition) (marine bacterium SW8; 4 hours, 10 ng/mL): gent c 4 2 1 3 | Compounds in order of increasing activity (growth inhibition) (marine bacterium SW8; 4 hours, 100 ng/mL): gent 4 c 2 3 1 | Compounds in order of increasing activity (growth inhibition) (marine bacterium SW8; 4 hours, 1.0 μg/mL): c gent 2 1 4 3 | Compounds in order of increasing activity (growth inhibition) (marine bacterium SW8; 4 hours, 10 μg/mL): c 1 gent 2 3 4 | Compounds in order of increasing activity (growth inhibition) (marine bacterium SW8; 11.5 hours, 10 ng/mL): gent c 2 4 1 3 | Compounds in order of increasing activity (growth inhibition) (marine bacterium SW8; 11.5 hours, 100 ng/mL): gent 4 2 c 1 3 | Compounds in order of increasing activity (growth inhibition) (marine bacterium SW8; 11.5 hours, 1.0 μg/mL): c gent 1 2 3 4 | Compounds in order of increasing activity (growth inhibition) (marine bacterium SW8; 11.5 hours, 10 μg/mL): c 1 2 gent 3 4 | Compounds in order of increasing activity (growth inhibition) (marine bacterium SW8; third panel, time not given, 10 ng/mL): gent 4 1 c 3 2 | Compounds in order of increasing activity (growth inhibition) (marine bacterium SW8; third panel, time not given, 100 ng/mL): gent 4 3 2 c 1 | Compounds in order of increasing activity (growth inhibition) (marine bacterium SW8; third panel, time not given, 1.0 μg/mL): 2 c 1 3 4 gent | Compounds in order of increasing activity (growth inhibition) (marine bacterium SW8; third panel, time not given, 10 μg/mL): c 1 2 gent 3 4
